Test results taken from PubChem BioAssay (NCI).
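Tested at 5 concentrations; 48 h exposure; 96-well plates; endpoints linearly interpolated, else capped at highest concentration. TGI denotes the concentration required for complete inhibition of growth.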

Legend:
Test in all cases: inhibition of tumour cell growth, NCI panel, 48 h
HL-60(TB) leukemia = tested on: HL-60(TB) leukemia
M14 melanoma = tested on: M14 melanoma
HOP-92 NSCLC = tested on: HOP-92 NSCLC
DU-145 prostate = tested on: DU-145 prostate
HS 578T breast = tested on: HS 578T breast
PC-3 prostate = tested on: PC-3 prostate
RXF 393 renal = tested on: RXF 393 renal
NCI/ADR-RES ovarian = tested on: NCI/ADR-RES ovarian
SK-MEL-2 melanoma = tested on: SK-MEL-2 melanoma
T-47D breast = tested on: T-47D breast
UACC-257 melanoma = tested on: UACC-257 melanoma
CAKI-1 renal = tested on: CAKI-1 renal
SW-620 colon = tested on: SW-620 colon
786-0 renal = tested on: 786-0 renal
KM12 colon = tested on: KM12 colon
SR leukemia = tested on: SR leukemia
IGROV1 ovarian = tested on: IGROV1 ovarian
COLO 205 colon = tested on: COLO 205 colon
MALME-3M melanoma = tested on: MALME-3M melanoma
SNB-19 CNS = tested on: SNB-19 CNS
SK-MEL-5 melanoma = tested on: SK-MEL-5 melanoma
TK-10 renal = tested on: TK-10 renal
A498 renal = tested on: A498 renal
A549 NSCLC = tested on: A549 NSCLC
NCI-H522 lung = tested on: NCI-H522 lung
SF-539 CNS = tested on: SF-539 CNS
NCI-H226 lung = tested on: NCI-H226 lung
EKVX NSCLC = tested on: EKVX NSCLC
UO-31 renal = tested on: UO-31 renal
MDA-MB-435 = tested on: MDA-MB-435
OVCAR-4 ovarian = tested on: OVCAR-4 ovarian
LOX IMVI melanoma = tested on: LOX IMVI melanoma
OVCAR-8 ovarian = tested on: OVCAR-8 ovarian
SK-OV-3 ovarian = tested on: SK-OV-3 ovarian
U251 CNS = tested on: U251 CNS
K-562 leukemia = tested on: K-562 leukemia
NCI-H23 lung = tested on: NCI-H23 lung
CCRF-CEM leukemia = tested on: CCRF-CEM leukemia
MCF7 breast = tested on: MCF7 breast
HOP-62 NSCLC = tested on: HOP-62 NSCLC
SNB-75 CNS = tested on: SNB-75 CNS
MDA-N = tested on: MDA-N
HCT-116 colon = tested on: HCT-116 colon
SN12C renal = tested on: SN12C renal
HCT-15 colon = tested on: HCT-15 colon
SK-MEL-28 melanoma = tested on: SK-MEL-28 melanoma
SF-268 CNS = tested on: SF-268 CNS
OVCAR-3 ovarian = tested on: OVCAR-3 ovarian
MDA-MB-231 breast = tested on: MDA-MB-231 breast
NCI-H460 lung = tested on: NCI-H460 lung
RPMI-8226 leukemia = tested on: RPMI-8226 leukemia
HT29 colon = tested on: HT29 colon
SF-295 CNS = tested on: SF-295 CNS
ACHN renal = tested on: ACHN renal
HCC-2998 colon = tested on: HCC-2998 colon
UACC-62 melanoma = tested on: UACC-62 melanoma
MOLT-4 leukemia = tested on: MOLT-4 leukemia
OVCAR-5 ovarian = tested on: OVCAR-5 ovarian

O=C(CC(O)(C(F)(F)F)C(F)(F)Cl)CC(O)(C(F)(F)F)C(F)(F)Cl (stereo not drawn)
TGI (HL-60(TB) leukemia): > 10 µM
TGI (M14 melanoma): > 10 µM
TGI (HOP-92 NSCLC): 4.57 µM
TGI (DU-145 prostate): > 10 µM
TGI (HS 578T breast): 6.69 µM
TGI (PC-3 prostate): 7.37 µM
TGI (RXF 393 renal): 6.58 µM
TGI (NCI/ADR-RES ovarian): 9.5 µM
TGI (SK-MEL-2 melanoma): 4.15 µM
TGI (T-47D breast): > 10 µM
TGI (UACC-257 melanoma): 4.59 µM
TGI (CAKI-1 renal): > 10 µM
TGI (SW-620 colon): > 10 µM
TGI (786-0 renal): > 10 µM
TGI (KM12 colon): > 10 µM
TGI (SR leukemia): > 10 µM
TGI (IGROV1 ovarian): > 10 µM
TGI (COLO 205 colon): 3.07 µM
TGI (MALME-3M melanoma): 6.34 µM
TGI (SNB-19 CNS): > 10 µM
TGI (SK-MEL-5 melanoma): 4.35 µM
TGI (TK-10 renal): 9.9 µM
TGI (A498 renal): 9.22 µM
TGI (A549 NSCLC): > 10 µM
TGI (NCI-H522 lung): 8.78 µM
TGI (SF-539 CNS): > 10 µM
TGI (NCI-H226 lung): 6.92 µM
TGI (EKVX NSCLC): > 10 µM
TGI (UO-31 renal): > 10 µM
TGI (MDA-MB-435): > 10 µM
TGI (OVCAR-4 ovarian): > 10 µM
TGI (LOX IMVI melanoma): 7.34 µM
TGI (OVCAR-8 ovarian): > 10 µM
TGI (SK-OV-3 ovarian): 4.69 µM
TGI (U251 CNS): 8.39 µM
TGI (K-562 leukemia): > 10 µM
TGI (NCI-H23 lung): 4.34 µM
TGI (CCRF-CEM leukemia): > 10 µM
TGI (MCF7 breast): > 10 µM
TGI (HOP-62 NSCLC): 5.85 µM
TGI (SNB-75 CNS): > 10 µM
TGI (MDA-N): > 10 µM
TGI (HCT-116 colon): 5.31 µM
TGI (SN12C renal): 9.8 µM
TGI (HCT-15 colon): > 10 µM
TGI (SK-MEL-28 melanoma): > 10 µM
TGI (SF-268 CNS): > 10 µM
TGI (OVCAR-3 ovarian): 9.14 µM
TGI (MDA-MB-231 breast): 5.43 µM
TGI (NCI-H460 lung): 8.85 µM
TGI (RPMI-8226 leukemia): > 10 µM
TGI (HT29 colon): > 10 µM
TGI (SF-295 CNS): 7.91 µM
TGI (ACHN renal): > 10 µM
TGI (HCC-2998 colon): > 10 µM
TGI (UACC-62 melanoma): > 10 µM
TGI (MOLT-4 leukemia): > 10 µM

CCN(CC)Cc1ccccc1CC(=O)N1c2ccccc2C(=O)Nc2cccnc21
TGI (HL-60(TB) leukemia): > 100 µM
TGI (M14 melanoma): > 100 µM
TGI (HOP-92 NSCLC): > 100 µM
TGI (DU-145 prostate): > 100 µM
TGI (HS 578T breast): > 100 µM
TGI (PC-3 prostate): > 100 µM
TGI (RXF 393 renal): > 100 µM
TGI (NCI/ADR-RES ovarian): > 100 µM
TGI (SK-MEL-2 melanoma): > 100 µM
TGI (T-47D breast): > 100 µM
TGI (UACC-257 melanoma): > 100 µM
TGI (CAKI-1 renal): > 100 µM
TGI (SW-620 colon): > 100 µM
TGI (786-0 renal): > 100 µM
TGI (KM12 colon): > 100 µM
TGI (SR leukemia): 72.2 µM
TGI (IGROV1 ovarian): > 100 µM
TGI (COLO 205 colon): > 100 µM
TGI (MALME-3M melanoma): > 100 µM
TGI (SNB-19 CNS): > 100 µM
TGI (SK-MEL-5 melanoma): > 100 µM
TGI (TK-10 renal): > 100 µM
TGI (A498 renal): > 100 µM
TGI (A549 NSCLC): > 100 µM
TGI (NCI-H522 lung): > 100 µM
TGI (SF-539 CNS): > 100 µM
TGI (NCI-H226 lung): > 100 µM
TGI (EKVX NSCLC): > 100 µM
TGI (MDA-MB-435): > 100 µM
TGI (OVCAR-4 ovarian): > 100 µM
TGI (LOX IMVI melanoma): > 100 µM
TGI (OVCAR-8 ovarian): > 100 µM
TGI (SK-OV-3 ovarian): > 100 µM
TGI (U251 CNS): > 100 µM
TGI (K-562 leukemia): > 100 µM
TGI (NCI-H23 lung): > 100 µM
TGI (CCRF-CEM leukemia): > 100 µM
TGI (MCF7 breast): > 100 µM
TGI (HOP-62 NSCLC): > 100 µM
TGI (OVCAR-5 ovarian): > 100 µM
TGI (MDA-N): > 100 µM
TGI (HCT-116 colon): > 100 µM
TGI (SN12C renal): > 100 µM
TGI (HCT-15 colon): > 100 µM
TGI (SK-MEL-28 melanoma): > 100 µM
TGI (SF-268 CNS): > 100 µM
TGI (OVCAR-3 ovarian): > 100 µM
TGI (MDA-MB-231 breast): > 100 µM
TGI (NCI-H460 lung): > 100 µM
TGI (RPMI-8226 leukemia): > 100 µM
TGI (HT29 colon): > 100 µM
TGI (SF-295 CNS): > 100 µM
TGI (ACHN renal): > 100 µM
TGI (HCC-2998 colon): > 100 µM
TGI (UACC-62 melanoma): > 100 µM
TGI (MOLT-4 leukemia): > 100 µM
